# Several values for one entry are separate records, joined by “and”; a condition that tells them apart may be missing. Identical values can stand only once. Like-named read-outs stand apart in the source and are kept apart here.
# Legend:
# [1] = Zeta-potential measurement; format: physicochemical; conditions: for Zeta-pot. / mV: zeta potential of peptide, Fig S15 source data
# Summary of the method: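 Zeta potentials of aggregated peptides come from electrophoretic mobility (Smoluchowski model) in 1 mM KCl after a 1 d RT incubation at 1 mg/mL in PBS, pH 7.4.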
# [2] = Turbidity, derived count rate of scattered light; format: physicochemical; conditions: for Zeta Count Rate / kcps: derived count rate of scattered light
# Summary of the method: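 Samples: 1 mg/mL in PBS pH 7.4 (from DMSO), 1 d at RT, then diluted in 1 mM KCl immediately before measurement. Triplicates, two independent runs averaged.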
# [3] = tested on: HIV-1 infection of TZM-bl cells; assay: HIV-1 infectivity enhancement assay, β-galactosidase luminescence; format: cell-based; conditions: for Log10 Inf. rel. to EF-C: log10 of HIV-1 infection of TZM-bl cells relative to EF-C, Fig S15 source data; for Log10 Infection Rel EF-C: HIV-1 infection of TZM-bl cells
# [4] = β-sheet content by ATR-FT-IR; format: physicochemical
# Summary of the method: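 Measurements on freeze-dried PNF powders used a diamond ATR element, 64 scans each, with β-sheet fraction derived as previously reported. CR reflects loss of fluorescamine-reactive monomer after 3 kDa ultrafiltration, averaged over triplicates.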
# [5] = mean, std deviation in next column
# [6] = mean, std deviation in separate column
# [7] = Feb2021, Log10 of infectivity relative to EF-C
# [8] = Feb2021, n-fold infectivity relative to EF-C
# [9] = Feb2021 run, infectivity n-fold relative to virus alone
# [10] = Feb2021 run, log10 of infectivity relative to EF-C
# [11] = Feb2021 run, n-fold infectivity relative to EF-C
# [12] = infectivity class (low / medium / high) of each library peptide, main list in c1-c6, same classes repeated in sub-lists of sequences containing the hydrophobicity/charge patterns P+,H0,P+,H0,P0,H0,P0, P+,H0,P0,H0,P0,H0,P0, P+,H0,P0,H0
# [13] = category 1 or 0 from count rate, key not given
# [14] = Feb2021, 1.3 µM value relative to virus only (0 µM)
# [15] = Feb2021, n-fold enhancement relative to EF-C
# [16] = Feb2021, unrounded values of the 1.3 µM column
Substance,Zeta category ( +1 = if > 4 mV;-1 = if < -4 mV; 0 = -4mV to 4 mV) [1],"Zeta Pot. / mV ([1]; mean, Std Zeta in next column)","Zeta Pot. / mV ([1]; mean, Std in separate column)",Zeta-pot. / mV [1],"Zeta Count Rate / kcps [2, 5]","Zeta Count Rate / kcps [2, 6]","Log10 of Rel to EFC (Feb2021) [3, 7]","Rel-to EFC (Feb-2021) [3, 8]","n-fold to virus (Feb2021) [3, 9]","Log10 of Rel to EFC (Feb2021) [3, 10]","Rel-to EFC (Feb-2021) [3, 11]","infectivity [3, 12]",Log10 Inf. rel. to EF-C ([3]; asymmetric std dev errors),FTIR ß-sheet content/ % [4],FTIR ß-sheet content/ % ([4]; ATR-FT-IR),Zeta category ( +1 = if > 4 mV;-1 = if < -4 mV; 0 = -4mV to 4 mV) ([1]; category from zeta potential),"Zeta Count Rate Category ([2]; category 1/0, no key printed)","Zeta Count Rate Category [2, 13]","n-fold to virus (Feb2021) [3, 14]","Rel-to EFC (Feb-2021) [3, 15]",other results
QCKFKQFFNM [CK11],1 (+1 = if > 4 mV),13.67 mV,13.67 mV,13.67 mV,10384.7 kcps,10384.7 kcps,-0.3706,0.426,17.9,-0.3706,0.426,medium,-0.3706,41.84%,42% and 41.84%,,,,,,"Zeta Pot. / mV [1]: 13.67 mV; Zeta category ( +1 = if > 4 mV;-1 = if < -4 mV; 0 = -4mV to 4 mV) ([1]; category derived from the zeta potential): 1 (+1 = if > 4 mV); Zeta Count Rate Category ([2]; category 1 / 0, no key given): 1; Zeta Count Rate Category ([2]; category 1 or 0 derived from the count rate, key not given): 1; Zeta Count Rate / kcps [2]: 10384.7 kcps; Absolute Infectivity / RLU /s (Feb2021) ([3]; Feb2021, figures match the 1.3 µM column): 5847 RLU /s; Rel-to EFC (Feb-2021) ([3]; Feb2021, infectivity enhancement relative to EF-C): 0.426; n-fold to virus (Feb2021) ([3]; Feb2021, infectivity relative to virus only): 17.9"
QCKFKFQFNMWQ [CK7],1 (+1 = if > 4 mV),21.07 mV,21.07 mV,21.07 mV,1208 kcps,1208 kcps,-0.2086,0.6186,25.99,-0.2086,0.6186,medium,-0.2086,47.05%,47% and 47.05%,1 (+1 = if > 4 mV),1,1,25.99,0.6186,"Absolute Infectivity / RLU /s (Feb2021) [3, 16]: 19753.33333 RLU /s"
CKFKFQFNMWQ [BL2],1 (+1 = if > 4 mV),17.03 mV,17.03 mV,17.03 mV,142.5 kcps,142.5 kcps,0.06446,1.16,48.74,0.06446,1.16,high,0.06446,47.05%,47% and 47.05%,1 (+1 = if > 4 mV),1,1,48.74,1.16,"Absolute Infectivity / RLU /s (Feb2021) [3, 16]: 26320 RLU /s; infectivity ([3]; infectivity class (low / medium / high) of the peptide in the sequence-pattern analysis, Fig. S22-A4, class limits not given): high"
KLKQLL,,,,,,,,,,,,,,,,,,,,,"Zeta-Pot. ([1]; zeta potential of peptide assemblies): -8.46; Zeta-Potential / mV ([1]; zeta-potential of peptide, source data of Figure 2C): -5.682 mV; Zeta-Potential / mV ([1]; zeta-potential of the peptide assemblies, mean, Figure 3A source data): -8.46 mV; Log10 Count Rate ([2]; Log10 of derived count rate of scattered light (turbidity)): 2.505; Count Rate / kcps ([2]; derived count rate of scattered light at 633 nm, 173°, from zeta-potential measurement, 0.1 mg/mL in 1 mM KCl after 1 d at 1 mg/mL in PBS, turbidity / microscopic aggregation, mean of triplicate): 320 kcps; Log10 Count Rate ([2]; log10 of derived count rate of scattered light (turbidity)): 2.505; Log10 Count Rate ([2]; turbidity, Log10 of derived count rate of scattered light, Figure 3A source data): 2.505; Rel-EFC ([3]; 1.3 µM peptide, infection relative to EF-C (QCKIKQIINMWQ = 1)): 0,01; Log10 Infection Rel EFC ([3]; 1.3 µM peptide, log10 of infection relative to EF-C): -2,13; Log Infectivity ([3]; Fig. S7 panel A (plotted against β-sheet content), Log10 infection relative to EF-C, TZM-bl cells, asymmetric std dev errors): -2.131; Log10 Infection Rel EF-C ([3]; Log10 of infection rate relative to EF-C, Figure 3A source data): -2.13; Log10 Infection Rel EF-C ([3]; infection rate relative to EF-C, log10, data of Figure 2D): -2.131; Log10 Infection Rel EF-C ([3]; infection rate relative to EF-C, log10, source data of Figure 2C): -2.131; b -sheet / % ([4]; Fig. S7 panel A, β-sheet content by ATR-FT-IR): 31.78%"
